In patent US12616716B2, “Wound healing dressings and formulations and methods of use thereof” (Polaroid IP B.V., priority 2023, dated 2026):
Converted amounts (≈) assume the structure as drawn. Marks after values point to notes of the source that are not given here.

Experiments:
[1] = system: mammalian cells (HDF and HaCaT); assay: Mammalian cell cytotoxicity (LDH and MTS), both cell populations; type: cell-based, human
Protocol: (§1) Primary Human Dermal Fibroblast (HDFs) and Human Keratinocyte (HaCaT) cells were selected for cytotoxicity and proliferation testing. HDFs were cultured in high glucose, no glutamine, no phenol red, Dulbecco's Modified Eagle Medium (DMEM) (GIBCO™). HDF media was further supplemented with 10% heat-inactivated fetal bovine serum (GIBCO™), 1% L-glutamine (GIBCO™) and 1% Penicillin-streptomycin (GIBCO™). HaCaTs cells were cultured in high glucose, no glutamine, no calcium DMEM (GIBCO™) supplemented with 10% heat inactivated foetal bovine serum, 1% L-glutamine, 1% Penicillin-streptomycin 1 mM calcium chloride (Sigma) throughout.
Mammalian cell populations were maintained in standard culture conditions at 37° C., 5% CO2 and >95% relative humidity. […] Once complete, the pellet of cells was re-suspended in 10 mL warmed culture media and the number of cells per mL was determined using a hemocytometer counting chamber. […]
(§2) The secretion of lactate dehydrogenase (LDH) enzyme was used for quantitatively measuring cell damage and cytotoxicity. As damage to the cell plasma membrane releases LDH into the cell culture media, the extracellular LDH in the media can be quantified by a coupled enzymatic reaction in which LDH catalyzes the conversion of lactate to pyruvate via NAD+ reduction to NADH. […]

[2] = system: all tested bacteria (Gram-positive and Gram-negative); assay: MIC / antimicrobial activity over the whole panel of tested bacteria
[3] = system: S. aureus NRS 384; assay: Mouse Staphylococcus aureus-induced wound infection model, bacteria load in wound site; conditions: 50 μL/wound site
[4] = system: Primary Human Dermal Fibroblast (HDFs); assay: LDH cytotoxicity assay, HDF; type: cell-based; conditions: Table 16, summarized cell toxicity values
Protocol: as §1
(§3) Mammalian cell populations were maintained in standard culture conditions at 37° C., 5% CO2 and >95% relative humidity. Upon reaching 80% total confluency, cells were removed from the incubator, the culture media aspirated, and the monolayer washed with Dulbecco's […] (DPBS). After washing, 10 mL of 1% trypsin (GIBCO™) was added to the flask and incubated to facilitate the detachment of cells from the culture vessel. Following dissociation, 10 mL of culture media was then added to each flask to neutralize the trypsin enzyme activity. The total 20-mL flask volume was transferred into a universal tube and centrifuged at 400 rcf for 5 minutes. Once complete, the pellet of cells was re-suspended in 10 mL warmed culture media and the number of cells per mL was determined using a hemocytometer counting chamber. Cell suspensions were then adjusted to 5×10^4 cells/mL for HDFs and 1×10^5 cells/mL for HaCaTs. 100 μL of the cell suspension was added to each well of a sterile, cell-culture-treated 96-well microtiter plate. The plates were incubated in standard culture conditions for 16-24 hours to allow cellular adherence to the culture vessel. […] Culture plates were removed from the incubator, the media removed; and monolayers washed with 100 μL of warmed DPBS. The contents of the test item dilution plates were transferred to the culture plates. […]
as §2
(§4) Following incubation with the selected compounds, 50 μL of media from each well was transferred to the corresponding well of a fresh 96 well culture plate. The presence of Lactate dehydrogenase (LDH) was then quantified using the INVITROGEN™ CyQUANT™ LDH Cytotoxicity Assay, fluorescence kit. Total fluorescence was measured by reading the plates on a plate reader at an excitation of 560 nm and an emission of 590 nm. […]

[5] = system: Human Keratinocyte (HaCaT) cells; assay: LDH cytotoxicity assay, HaCaT; type: cell-based; conditions: Table 16, summarized cell toxicity values
Protocol: as §1, §3, §2, §4

[6] = system: Staphylococcus aureus ATCC 29213; assay: MIC, broth microdilution in MH broth with resazurin; type: cell-based; conditions: for MIC SA29213: Table 17, modified Gompertz fit, only values marked ^ are reliable estimates, others unreliable
[7] = system: Staphylococcus aureus MR1; assay: as above; type: cell-based; conditions: Table 17; modified Gompertz fit; only values marked ^ are reliable estimates, others unreliable
[8] = system: Enterococcus faecalis EF19433; assay: as above; type: cell-based; conditions: for MIC EF19433: Table 17, modified Gompertz fit, only values marked ^ are reliable estimates, others unreliable
[9] = system: Enterococcus faecalis EF51299; assay: as above; type: cell-based; conditions: for MIC EF51299: Table 17, modified Gompertz fit, only values marked ^ are reliable estimates, others unreliable
[10] = system: Klebsiella pneumoniae KL1; assay: as above; type: cell-based; conditions: Table 17; modified Gompertz fit; only values marked ^ are reliable estimates, others unreliable
[11] = system: Pseudomonas aeruginosa 27853; assay: as above; type: cell-based; conditions: Table 17; modified Gompertz fit; only values marked ^ are reliable estimates, others unreliable
[12] = system: Escherichia coli EC25922; assay: as above; type: cell-based; conditions: Table 17; modified Gompertz fit; only values marked ^ are reliable estimates, others unreliable
[13] = system: Staphylococcus aureus ATCC 29213; assay: MBC, spot plating after 24 h in MH broth; conditions: Table 18; —: no activity observed
Protocol: (§5) To determine MBC compound concentrations breakpoints were estimated from MIC curves. Overnight cultures were set up as described above for all bacterial strains. The following day overnight cultures were adjusted to give a cell density of 5×10^5 cells per mL. Briefly, cultures were adjusted to the McFarland standard (0.08-0.12) and diluted (1:150). Adjusted cultures were inoculated into 96 well plates with 50 μL sterile Muller-Hinton broth (MHB) and 2 concentrations of each compound. […] MBC cultures were quantified by serial dilution in a 96 well plate and spot plating onto Muller-Hinton agar (MHA). MHA plates were incubated at 37° C. for 24 h and counted. Results are presented as CFU per mL.
(§6) To determine MBC compound concentrations, breakpoints were estimated from MIC curves. Overnight cultures were set up as described above for all bacterial strains. The following day overnight cultures were adjusted to give a cell density of 5×10^5 cells per mL. Briefly, cultures were adjusted to the McFarland standard (0.08-0.12) and diluted (1:150). Adjusted cultures were inoculated into 96 well plates with 50 μL sterile Muller-Hinton broth (MHB) and 2 concentrations of each compound. […] MBC cultures were quantified by serial dilution in a 96 well plate and spot plating onto Muller-Hinton agar (MHA). MHA plates were incubated at 37° C. for 24 hours and counted.
(§7) These compounds were tested for their MBC against a panel of ATCC and nosocomial bacteria.

[14] = system: Staphylococcus aureus MR1; assay: MBC, spot plating after 24 h in MH broth; conditions: Table 18; —: no activity observed
Protocol: as §5, §6, §7

[15] = system: Enterococcus faecalis EF19433; assay: MBC, spot plating after 24 h in MH broth; conditions: Table 18; —: no activity observed
Protocol: as §5, §6, §7

[16] = system: Escherichia coli EC25922; assay: MBC, spot plating after 24 h in MH broth; conditions: Table 18; —: no activity observed
Protocol: as §5, §6, §7

[17] = system: Enterococcus faecalis EF51299; assay: MBC, spot plating after 24 h in MH broth; conditions: Table 18; —: no activity observed
Protocol: as §5
(§8) To determine MBC compound concentrations, breakpoints were estimated from MIC curves. Overnight cultures were set up as described above for all bacterial strains. The following day overnight cultures were adjusted to give a cell density of 5×10^5 cells per mL. Briefly, cultures were adjusted to the McFarland standard (0.08-0.12) and diluted (1:150). Adjusted cultures were inoculated into 96 well plates with 50 μL sterile Muller-Hinton broth (MHB) and 2 concentrations of each compound. […] MBC cultures were quantified by serial dilution in a 96 well plate and spot plating onto Muller-Hinton agar (MHA). MHA plates were incubated at 37° C. for 24 hours and counted. […]

[18] = system: Klebsiella pneumoniae KL1; assay: MBC, spot plating after 24 h in MH broth; conditions: Table 18; —: no activity observed
Protocol: as §5, §8

[19] = system: Staphylococcus aureus NRS384; assay: MIC, broth microdilution in MH broth with resazurin; type: cell-based; conditions: Table 21 (Example 8); Staphylococcus aureus NRS384; read-out: MIC Concentration

SMILES	Mammalian Cell Cytotoxicity, HDF [4] [µM]	Mammalian Cell Cytotoxicity, HaCaT [5] [µM]	MIC SA29213 [6] [µM]	MIC MR1 [7]	MIC EF19433 [8]	MIC EF51299 [9]	MIC KL1 [10]	MIC PA27853 [11]	MIC EC25922 [12] [µM]	MBC SA29213 [13] [µM]	MBC MR1 [14] [µM]	MBC EF19433 [15] [µM]	MBC EC25922 [16] [µM]	also measured
CCCCCCCCCCCCCCCCCC[N+](C)(C)CCOCCO.[Br-] [Compound 39637]														concentration with almost total/complete absence of viable cells ([1]; HDF and HaCaT): 6.3 µM; concentration at which LDH secretion began to rapidly exceed control levels ([1]; HDF and HaCaT populations): 3.12 µM; antimicrobial activity towards the gram +ve species Enterococcus faecalis and Staphylococcus aureus (in words) [2]: strong antimicrobial activity; Ig(CFU/wound site) 24 h p.i. ([3]; Study I, 100 μM, once a day): 8.49 ± 0.30 Ig(CFU/wound site); ΔIg(CFU/wound site) vs 12 h infection control ([3]; Study I, 100 μM, once a day): −0.23 ± 0.06 Ig(CFU/wound site); ΔIg(CFU/wound site) vs 24 h infection control ([3]; Study I, 100 μM, once a day): −0.29 ± 0.30 Ig(CFU/wound site); Ig(CFU/wound site) 12 h p.i. ([3]; Study I, 100 μM, once a day from 5 min p.i., inoculum 4.20E+06 CFU/wound site): 8.35 ± 0.06 Ig(CFU/wound site); Ig(CFU/wound site) 24 h p.i. ([3]; Study II, 300 μM, once a day): 8.90 ± 0.10 Ig(CFU/wound site); ΔIg(CFU/wound site) vs 12 h infection control ([3]; Study II, 300 μM, once a day): −0.45 ± 0.40 Ig(CFU/wound site); ΔIg(CFU/wound site) vs 24 h infection control ([3]; Study II, 300 μM, once a day): 0.04 ± 0.10 Ig(CFU/wound site); Ig(CFU/wound site) 12 h p.i. ([3]; Study II, 300 μM, once a day, inoculum 2.50E+06 CFU/wound site): 8.14 ± 0.40 Ig(CFU/wound site); Ig(CFU/wound site) 12 h p.i. ([3]; Study II, 1000 μM, once a day): 5.44 ± 0.94 Ig(CFU/wound site); Ig(CFU/wound site) 24 h p.i. ([3]; Study II, 1000 μM, once a day): 5.81 ± 1.79 Ig(CFU/wound site); ΔIg(CFU/wound site) vs 12 h infection control ([3]; Study II, 1000 μM, once a day): −3.15 ± 0.94 Ig(CFU/wound site); ΔIg(CFU/wound site) vs 24 h infection control ([3]; Study II, 1000 μM, once a day): −3.06+1.79** Ig(CFU/wound site)
CCCCCCCCCCCCCCCCCC[N+](C)(C)CCOCCO.[Br-] [Compound 39637_105543]	6.3	6.3	3.16	10.58^ μM	3.20^ μM	62.65^ μM	+infinity	53.54 µM	42.96	1.57	6.25	1.57	25	
CCCCCCCCCCCCCCCCCC[N+](C)(C)CCOCCO.[Br-] [Compound 39637_109466]	6.3	6.3	3.05	10.78^ μM	2.59^ μM	16.81^ μM	2.06 µM	62.14^ μM	59.94	1.57	6.25	1.57	25	MBC EF51299 [17]: 1.57 µM; MBC KL1 [18]: 50 µM
CCCCCCCCCCCC[N+](C)(C)CCOCCO.[Br-] [Compound 40597_109444]	100	100		0.94 µM	1.63^ μM	27.19^ μM	0.01 µM	2.84 µM						
CCCCCC[N+](C)(C)CCOCCO.[Br-] [Compound 40598_109448]	>100	>100	1.93		Unstable		48.98 µM	0.06 µM	0.83					
CC(=O)O[C@H]1C[C@@]2(C)[C@@H](C[C@@H](O)[C@H]3[C@@]4(C)CC[C@@H](O)[C@@H](C)[C@@H]4CC[C@@]32C)/C1=C(\CCC=C(C)C)C(=O)O [fusidic acid]														MIC ([6]; ATCC29213, Table 21 (Example 8), Staphylococcus aureus 29213, read-out: MIC Concentration): 0.04 µM (≈ 0.0207 µg/mL); MIC [19]: 0.04 µM (≈ 0.0207 µg/mL); MIC ([8]; Table 21 (Example 8), Enterococcus faecalis EF19433, read-out: MIC Concentration): 5 µM (≈ 2.58 µg/mL); MIC ([9]; Table 21 (Example 8), Enterococcus faecalis EF51299, read-out: MIC Concentration): 5 µM (≈ 2.58 µg/mL)
